pIC50: −log10 of the molar value.
Tests used:
[1] = molecular target: Cyclin-dependent kinase 1/cyclin B (Homo sapiens, UniProt P06493); assay: Inhibition of Cyclin-dependent kinase 1-cyclin B; type: protein-complex assay
[2] = tested on: HCT-116; assay: Inhibition of human colon carcinoma cell (HCT116) proliferation; type: functional, cell-based
[3] = molecular target: Cyclin-dependent kinase 4/cyclin D1 (Homo sapiens, UniProt P11802); assay: Inhibition of Cyclin-dependent kinase 4-cyclin D1; type: protein-complex assay
Sequence of Cyclin-dependent kinase 4/cyclin D1 (P11802 whole entry): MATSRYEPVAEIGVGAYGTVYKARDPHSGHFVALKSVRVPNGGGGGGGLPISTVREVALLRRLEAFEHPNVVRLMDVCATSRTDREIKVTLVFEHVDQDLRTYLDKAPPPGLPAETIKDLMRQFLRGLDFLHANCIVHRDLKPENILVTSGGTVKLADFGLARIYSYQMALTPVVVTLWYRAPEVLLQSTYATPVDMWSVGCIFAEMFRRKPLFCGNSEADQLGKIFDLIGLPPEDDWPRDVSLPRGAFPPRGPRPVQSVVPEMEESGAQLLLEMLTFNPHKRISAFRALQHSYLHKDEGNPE
Sequence of Cyclin-dependent kinase 4/cyclin D1 (P24385 whole entry, further chain): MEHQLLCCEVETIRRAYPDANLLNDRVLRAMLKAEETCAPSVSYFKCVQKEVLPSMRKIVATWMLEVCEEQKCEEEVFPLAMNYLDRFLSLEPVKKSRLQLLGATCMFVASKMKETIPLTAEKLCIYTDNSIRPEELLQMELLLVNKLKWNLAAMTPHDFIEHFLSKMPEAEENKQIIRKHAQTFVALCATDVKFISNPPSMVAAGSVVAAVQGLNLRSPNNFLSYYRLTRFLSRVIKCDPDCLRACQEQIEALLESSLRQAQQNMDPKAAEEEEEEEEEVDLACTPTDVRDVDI

[4] = molecular target: Cyclin-dependent kinase 2/cyclin E (Homo sapiens, UniProt P24941)
Description: Inhibition of Cyclin-dependent kinase 2-cyclin E

Row | SMILES | pIC50 [1] | pIC50 [2] | pIC50 [3] | pIC50 [4]
1 | CCc1nn(-c2c(Cl)cc(Cl)cc2Cl)c2nc(Cc3ccc(OC)cc3)[nH]c(=O)c12 | 6.82 | 6.22 | 5.66 | 8.00
2 | CSc1nn(-c2ccccc2Cl)c2nc(C)[nH]c(=O)c12 | – | – | 4.72 | –
3 | CSc1nn(-c2c(Cl)cc(Cl)cc2Cl)c2nc(C(C)C)[nH]c(=O)c12 | – | – | 5.00 | –
4 | CSc1nn(-c2c(Cl)cc(Cl)cc2Cl)c2nc(C3CC3)[nH]c(=O)c12 | – | – | 5.37 | 6.40
5 | CCc1nn(-c2c(Cl)cc(Cl)cc2Cl)c2nc(Cc3cccc(N)c3)[nH]c(=O)c12 | 6.57 | 6.33 | 5.54 | 7.40
6 | Cc1nc2c(c(C(F)(F)F)nn2-c2c(Cl)cc(Cl)cc2Cl)c(=O)[nH]1 | – | – | 5.51 | –
7 | CCc1nn(-c2c(Cl)cc(Cl)cc2Cl)c2nc(CCSC)[nH]c(=O)c12 | – | – | 5.19 | –
8 | CSc1nn(-c2ccccc2)c2nc(C)[nH]c(=O)c12 | – | – | < 3.74 | –
9 | Cc1nc2c(c(CO)nn2-c2c(Cl)cc(Cl)cc2Cl)c(=O)[nH]1 | – | – | 5.15 | –
10 | CSc1nn(-c2cccc(Cl)c2)c2nc(C)[nH]c(=O)c12 | – | – | < 3.80 | –
11 | CSc1nn(-c2c(Cl)cc(Cl)cc2Cl)c2nc(-c3ccco3)[nH]c(=O)c12 | – | – | 4.44 | –
12 | CCc1nn(-c2c(Cl)cc(Cl)cc2Cl)c2nc(C)n(C)c(=O)c12 | – | – | < 4.57 | < 4.57
13 | CCCc1nc2c(c(SC)nn2-c2c(Cl)cc(Cl)cc2Cl)c(=O)[nH]1 | – | – | 5.04 | –
14 | CSCc1nc2c(c(SC)nn2-c2c(Cl)cc(Cl)cc2Cl)c(=O)[nH]1 | – | – | 4.82 | 6.51
15 | CCCCc1nn(-c2c(Cl)cc(Cl)cc2Cl)c2nc(C)[nH]c(=O)c12 | – | – | < 5.19 | –
16 | CCc1nn(-c2c(Cl)cc(Cl)cc2Cl)c2nc(CCc3cnc[nH]3)[nH]c(=O)c12 | – | – | 5.44 | 6.21
17 | CCc1nn(-c2c(Cl)cc(Cl)cc2Cl)c2nc(Cc3cccc(C)c3)[nH]c(=O)c12 | < 6.25 | 5.68 | < 5.66 | 6.41
18 | CCc1nn(-c2c(Cl)cc(Cl)cc2Cl)c2nc(Cc3ccccc3O)[nH]c(=O)c12 | – | 5.26 | < 4.96 | 6.92
19 | CCc1nn(-c2c(Cl)cc(Cl)cc2Cl)c2nc(C)nc(N)c12 | – | – | < 3.85 | –
20 | Cc1nc2c(cnn2-c2c(Cl)cc(Cl)cc2Cl)c(=O)[nH]1 | – | – | 4.92 | –
21 | CCc1nn(-c2c(Cl)cc(Cl)cc2Cl)c2nc(Cc3ccc(O)cc3)[nH]c(=O)c12 | 7.00 | 7.05 | 5.70 | 8.00

Row | SMILES | pIC50 [1] | pIC50 [2] | pIC50 [3] | pIC50 [4]
22 | CSc1nn(-c2ccccn2)c2nc(C)[nH]c(=O)c12 | – | – | < 3.74 | –
23 | CSc1nn(-c2c(Cl)cc(Cl)cc2Cl)c2nc(CCCCCO)[nH]c(=O)c12 | – | – | 5.00 | 6.38
24 | CCc1nn(-c2c(Cl)cc(Cl)cc2Cl)c2nc(Cc3ccncc3)[nH]c(=O)c12 | 6.31 | 6.26 | 5.52 | 7.52
25 | CSc1nn(-c2c(Cl)cccc2Cl)c2nc(C)[nH]c(=O)c12 | – | – | 5.28 | –
26 | CSc1nn(-c2c(Cl)cc(Cl)cc2C(F)(F)F)c2nc(C)[nH]c(=O)c12 | – | – | 4.54 | –
27 | CSc1nn(-c2c(C)cc(Cl)cc2Cl)c2nc(C)[nH]c(=O)c12 | – | – | 4.96 | –
28 | CSc1nn(Cc2ccccc2)c2nc(C)[nH]c(=O)c12 | – | – | < 3.82 | –
29 | CSc1nn(-c2c(Cl)cc(Cl)cc2Cl)c2nc(CN(C)C(=O)OC(C)(C)C)[nH]c(=O)c12 | – | – | < 4.30 | –
30 | CSc1nn(-c2c(Cl)cc(Cl)cc2Cl)c2nc[nH]c(=O)c12 | – | – | 4.02 | 5.57
31 | CCc1nn(-c2c(Cl)cc(Cl)cc2Cl)c2nc(Cc3ccccn3)[nH]c(=O)c12 | – | 5.43 | 5.01 | 6.64
32 | C=Cc1nc2c(c(CC)nn2-c2c(Cl)cc(Cl)cc2Cl)c(=O)[nH]1 | – | – | 5.54 | 6.51
33 | CSc1nn(-c2c(Cl)cc(Cl)cc2Cl)c2nc(Cc3ccccc3)[nH]c(=O)c12 | – | – | 4.96 | 6.36
34 | CSc1nn(-c2cc(C)ccc2C)c2nc(C)[nH]c(=O)c12 | – | – | 4.60 | –
35 | CCc1nn(-c2c(Cl)cc(Cl)cc2Cl)c2nc(Cc3ccccc3CO)[nH]c(=O)c12 | < 6.57 | 6.31 | 5.54 | 7.70
36 | CSc1nn(-c2c(Cl)cc(Cl)cc2Cl)c2nc(CCCO)[nH]c(=O)c12 | – | – | 4.89 | 6.12
37 | CCc1nn(-c2c(Cl)cc(Cl)cc2Cl)c2nc(Cc3ccc(N(C)C)cc3)[nH]c(=O)c12 | < 6.59 | 6.47 | < 5.68 | 7.70
38 | CCc1nn(-c2c(Cl)cc(Cl)cc2Cl)c2nc(Cc3ccccc3OC)[nH]c(=O)c12 | – | 5.47 | < 4.66 | 7.00
39 | CCOC(=O)Cc1cccc(Cc2nc3c(c(CC)nn3-c3c(Cl)cc(Cl)cc3Cl)c(=O)[nH]2)c1 | – | – | < 5.72 | 6.82
40 | Cc1nc2c(c(C#N)nn2-c2c(Cl)cc(Cl)cc2Cl)c(=O)[nH]1 | – | – | < 4.55 | –
41 | CSc1nn(-c2c(Cl)cc(Cl)cc2Cl)c2nc(C(F)(F)F)[nH]c(=O)c12 | – | – | < 3.94 | –
42 | CSc1nn(-c2c(C)cc(C)cc2C)c2nc(C)[nH]c(=O)c12 | – | – | 4.43 | –
